Test results published in patent publication US11000505B2 (priority 2010, dated 2021).
Values after ≈ are worked out from the molar mass of the structure shown.

How the values were obtained:
basilar artery = assay: Subarachnoid hemorrhage model (Example 8); format: in vivo
cGMP = cGMP in CSF by ELISA (Example 1); format: in vivo, newborn pigs
pial artery [1] = format: in vivo, piglets
pial artery [2] = format: in vivo, newborn pigs
ERK/MAPK = assay: CSF pERK/ERK after pretreatment by ELISA (Example 3); format: in vivo, piglets; conditions: 30 minutes after pretreatment
[3] = Solubility in other solvents; conditions: thermodynamic from solid
[4] = Physical and chemical properties: pKa; conditions: Non-ionizable
[5] = Solubility in cyclodextrin solutions (HPLC)
ERK = assay: CSF ERK activity (pERK/ERK) after HI by ELISA (Example 2); format: in vivo, newborn pigs; conditions: 60 min after HI; 10 μg/kg i.v. at 0 or 30 min after HI
Experimental: Newborn pigs (1-5 days old, 1.2-1.5 kg) of both sexes were used in this study. The animal experimental protocol was approved by the Institutional Animal Care and Use Committee of the University of Pennsylvania. As described previously, Isoflurane (1 to 2 minimum alveolar concentration) was initially used for anesthesia induction, followed by α-chloralose (30-50 mg/kg supplemented with 5 mg/kg/hr intravenously) for maintenance of anesthesia. After tracheotomy, the animals were initially ventilated with room air and kept warm with heating pad to maintain the rectal temperature at 37-39° C. Bilateral femoral arteries were catheterized to monitor the blood pressure, blood gas tensions and pH. The femoral vein was catheterized for medication administration. A closed cranial window, consisting of a steel ring with a glass cover slip, connecting to 3 ports, was placed for direct pial artery visualization and diameter measurement. Small pial arteries (120 to 160 μm) and arterioles (50 to 70 μm) were identified under a microscope, visualized on a monitor connected to the microscope, and measured via a video microscaler (model VPA 550, For-A-Corp., Los Angeles, Calif.). […]
ERK activity were then determined from frozen CSF samples described above. The levels of pERK and ERK were measured by ELISA kits (Enzo Life Sciences International, Inc., Plymouth Meeting, Pa.).

pial artery [6] = conditions: 10%-16% changes compared to the baseline
pial artery [7] = conditions: pig, in vivo
[8] = SB203580 10 μM topical 30 min before salvinorin A
[9] = SP600125 1 μM topical 30 min before salvinorin A
[10] = U0126 1 mg/kg i.v. 30 min before salvinorin A
[11] = pretreatment 10 μg/kg i.v. 30 min before H/I
[12] = 10 μg/kg i.v. co-administrated with nor-BIN 1 μM topical
[13] = 10 μg/kg i.v. immediately or 30 min after HI, 60 min after HI

COC(=O)[C@@H]1C[C@H](OC(C)=O)C(=O)[C@H]2[C@@]1(C)CC[C@H]1C(=O)O[C@H](c3ccoc3)C[C@]21C [Salvinorin A]
neurological score (basilar artery; 24 hour after SAH): no significant effect on the neurological score
diameter of the basilar artery (basilar artery; 24 hours after SAH, H&E): increased the diameter
thickness of the wall of the basilar artery (basilar artery; 24 hours after SAH, H&E): decreased the thickness of the wall
cGMP in CSF (cGMP; 10 min after administration): elevated cGMP in CSF
cGMP in CSF in presence of L-NNA (cGMP; L-NNA pretreatment): L-NNA blocked the elevation of the cGMP
cGMP in CSF in presence of norbinaltorphimine (cGMP; norbinaltorphimine pretreatment, 10 nM and 1 μM): Norbinaltorphimine blocked the elevation of cGMP
preserved response to hypercapnia with SB203580 (pial artery [1]; [8]): No significant change in the preservative effects
preserved response to hypotension with SB203580 (pial artery [1]; [8]): no significantly changes
preserved response to hypercapnia with SP600125 (pial artery [1]; [9]): No significant change in the preservative effects
preserved response to hypotension with SP600125 (pial artery [1]; [9]): no significantly changes
preserved response to hypercapnia with U0126 (pial artery [1]; [10]): abolished by U0126
preserved response to hypotension with U0126 (pial artery [1]; [10]): abolished by U0126
pial artery dilation response to hypercapnia after hypoxia/ischemia (pial artery [1]; [11]): preserved the dilation response of pial artery to hypercapnia
pial artery dilation response to hypotension after hypoxia/ischemia (pial artery [1]; [11]): preserved the dilation response of pial artery to hypotension
pial artery dilation response to hypercapnia after HI with nor-BIN (pial artery [2]; [12]): abolished completely
pial artery dilation response to hypotension after HI with nor-BIN (pial artery [2]; [12]): abolished
pial artery dilation response to hypercapnia after HI (pial artery [2]; [13]): preserved the dilation responses of pial artery to hypercapnia
pial artery dilation response to hypotension after HI (pial artery [2]; [13]): preserved the dilation responses of pial artery to hypotension
ratio of pERK/ERK in CSF (ERK/MAPK): increased significantly
ratio of pERK/ERK in CSF with U0126 (ERK/MAPK; U0126 30 minutes before salvinorin): unchanged
solubility ([3]; 1,2-propanediol, organic solvent or mixture): 59 µg/mL (≈ 136 µM)
solubility ([3]; 1.25% Polysorbate 80 and […] Solutol HS15, aqueous with cosolvent or surfactant or cyclodextrin): 25 µg/mL (≈ 57.8 µM)
solubility ([3]; 2-propanol, organic solvent or mixture): 22 µg/mL (≈ 50.9 µM)
solubility ([3]; 5% Solutol HS15, aqueous with cosolvent or surfactant or cyclodextrin): 26 µg/mL (≈ 60.1 µM)
solubility ([3]; 5% Vitamin E TPGS, aqueous with cosolvent or surfactant or cyclodextrin): 45 µg/mL (≈ 104 µM)
solubility ([3]; 10% Tetraglycol, aqueous with cosolvent or surfactant or cyclodextrin): < 2 µg/mL
solubility ([3]; 10% bile salts, aqueous with cosolvent or surfactant or cyclodextrin): < 2 µg/mL
solubility ([3]; DMSO, organic solvent or mixture): > 1000 µg/mL
solubility ([3]; N,N-dimethylacetamide, organic solvent or mixture): > 5000 µg/mL
solubility ([3]; N-methylpyrolidinone, organic solvent or mixture): > 10000 µg/mL
solubility ([3]; […] Polysorbate 80, aqueous with cosolvent or surfactant or cyclodextrin): < 2 µg/mL
solubility ([3]; ethanol, organic solvent or mixture): > 1000 µg/mL
solubility ([3]; glyceryl monocaprylate, oil or lipid): < 2 µg/mL
solubility ([3]; water): < 2 µg/mL
pKa [4]: None
solubility ([5]; 20% 2-hydroxypropyl-β-cyclodextrin (HPBCD) in water, aqueous with cosolvent or surfactant or cyclodextrin, thermodynamic from solid, Concentration (solubility), 20% HPBCD, mean ± SD): 122.5 ± 0.6 µg/mL (≈ 283 µM)
solubility ([5]; 20% 2-hydroxypropyl-β-cyclodextrin (HPBCD) in water, aqueous with cosolvent or surfactant or cyclodextrin, thermodynamic from solid, maximum concentration (solubility), HPBCD): > 100 µg/mL
solubility ([5]; 20% 2-hydroxypropyl-β-cyclodextrin (HPBCD) in water, aqueous with cosolvent or surfactant or cyclodextrin, thermodynamic from solid, solubility, 20% HPBCD): 122.5 ± 0.6 µg/mL (≈ 283 µM)
solubility ([5]; 20% 2-hydroxypropyl-γ-cyclodextrin (HPGCD) in water, aqueous with cosolvent or surfactant or cyclodextrin, thermodynamic from solid, Concentration (solubility), 20% HPGCD, mean ± SD): 52.6 ± 0.9 µg/mL (≈ 122 µM)
solubility ([5]; 20% 2-hydroxypropyl-γ-cyclodextrin (HPGCD) in water, aqueous with cosolvent or surfactant or cyclodextrin, thermodynamic from solid, solubility, 20% HPGCD): 52.6 ± 0.9 µg/mL (≈ 122 µM)
solubility ([5]; 20% α-cyclodextrin sulfated sodium salt in water, aqueous with cosolvent or surfactant or cyclodextrin, thermodynamic from solid, Concentration (solubility), 20% α-Cyclodextrin sulfated sodium salt, mean ± SD): 1 ± 0.1 µg/mL
solubility ([5]; 20% β-cyclodextrin sulfated sodium salt in water, aqueous with cosolvent or surfactant or cyclodextrin, thermodynamic from solid, Concentration (solubility), 20% β-Cyclodextrin sulfated sodium salt, mean ± SD): 1.5 ± 0.1 µg/mL
solubility ([5]; water and α- or β-cyclodextrin sulfated sodium salt): only minimally soluble
solubility ([5]; water, thermodynamic from solid, Concentration (solubility), 100% water, mean ± SD): 1 ± 0.1 µg/mL (≈ 2.31 µM)
CSF ERK activity (pERK/ERK) (ERK): reduced to the baseline level
concentration required to effectively dilate pial arteries (pial artery [6]): 10 nM
blood pressure changes during administration (pial artery [7]): No significant blood pressure changes
dilation of constricted pial arteries (pial artery [7]): dilated pial arteries under elevated tone conditions
dilation of pial artery (pial artery [7]): dose dependently (10 nM, 1 μM) dilated the pial artery
dilation response in presence of L-NNA (pial artery [7]): abolished by L-NNA
dilation response in presence of glibenclamide (pial artery [7]): blocked the dilation effects of salvinorin A
dilation response in presence of naloxone (pial artery [7]): blocked the dilation effects
dilation response in presence of norbinaltorphimine (pial artery [7]): blocked the dilation effects
dilation response in presence of sulpiride (pial artery [7]): had no effect on the dilation response
dilation with repeated administration (pial artery [7]): sustained dilation effects was observed
